According to the supplement of paper PMC10307832:

Assays:
Test in all cases: relative viability (nuclei count vs DMSO), 5 days (fraction); higher = more cells survive
AGI-6780 + Lapatinib = compound: O=C(Nc1cccc(C(F)(F)F)c1)Nc1cc(S(=O)(=O)NC2CC2)ccc1-c1ccsc1 [AGI-6780] + CS(=O)(=O)CCNCc1ccc(-c2ccc3ncnc(Nc4ccc(OCc5cccc(F)c5)c(Cl)c4)c3c2)o1 [Lapatinib] (partner 2 µM)
Procedure, shortened: (§1)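 The day after seeding in 1536-well plates, lung cancer cell lines were treated by pin tool with a single drug, or with a fixed anchor-drug dose together with five library-drug doses (not always all listed) in √10 steps. After 5 days, a combined fix-and-stain solution (final 0.05% Triton X-100, 1% formaldehyde, 1 ug/ml Hoechst) was added. Nuclei counted on 4× images gave relative viability as treated counts over vehicle counts, reported as the median of duplicate plates.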

AGI-6780 + Decitabine = compound: O=C(Nc1cccc(C(F)(F)F)c1)Nc1cc(S(=O)(=O)NC2CC2)ccc1-c1ccsc1 [AGI-6780] + Nc1ncn([C@H]2C[C@H](O)[C@@H](CO)O2)c(=O)n1 [Decitabine] (partner 2 µM)
Procedure, shortened: as §1

AGI-6780 + Olaparib = compound: O=C(Nc1cccc(C(F)(F)F)c1)Nc1cc(S(=O)(=O)NC2CC2)ccc1-c1ccsc1 [AGI-6780] + O=C(c1cc(Cc2n[nH]c(=O)c3ccccc23)ccc1F)N1CCN(C(=O)C2CC2)CC1 [Olaparib] (partner 8 µM)
Procedure, shortened: as §1

AGI-6780 + AZD7762 = compound: O=C(Nc1cccc(C(F)(F)F)c1)Nc1cc(S(=O)(=O)NC2CC2)ccc1-c1ccsc1 [AGI-6780] + NC(=O)Nc1cc(-c2cccc(F)c2)sc1C(=O)N[C@H]1CCCNC1 [AZD7762] (partner 0.2 µM)
Procedure, shortened: as §1

Cell Line | relative viability (AGI-6780 + Lapatinib; first compound 0.08 µM) | relative viability (AGI-6780 + Lapatinib; first compound 0.253 µM) | relative viability (AGI-6780 + Lapatinib; first compound 0.8 µM) | relative viability (AGI-6780 + Lapatinib; first compound 2.53 µM) | relative viability (AGI-6780 + Lapatinib; first compound 8 µM) | relative viability (AGI-6780 + Decitabine; first compound 0.08 µM) | relative viability (AGI-6780 + Decitabine; first compound 0.253 µM) | relative viability (AGI-6780 + Decitabine; first compound 0.8 µM) | relative viability (AGI-6780 + Decitabine; first compound 2.53 µM) | relative viability (AGI-6780 + Decitabine; first compound 8 µM) | relative viability (AGI-6780 + Olaparib; first compound 0.08 µM) | relative viability (AGI-6780 + Olaparib; first compound 0.253 µM) | relative viability (AGI-6780 + Olaparib; first compound 0.8 µM) | relative viability (AGI-6780 + Olaparib; first compound 2.53 µM) | relative viability (AGI-6780 + Olaparib; first compound 8 µM) | relative viability (AGI-6780 + AZD7762; first compound 0.08 µM) | relative viability (AGI-6780 + AZD7762; first compound 0.253 µM) | relative viability (AGI-6780 + AZD7762; first compound 0.8 µM) | relative viability (AGI-6780 + AZD7762; first compound 2.53 µM) | relative viability (AGI-6780 + AZD7762; first compound 8 µM)
LC-2-ad | 0.943 | 1.04 | 0.979 | 1.02 | 0.958 | 0.835 | 0.804 | 0.791 | 0.868 | 0.793 | 0.782 | 0.707 | 0.764 | 0.674 | 0.727 | 0.895 | 0.885 | 0.921 | 0.877 | 0.859
LCLC-97TM1 | 0.803 | 1.61 | 1.14 |  | 1 | 0.221 | 0.219 | 0.304 | 0.19 | 0.231 | 0.41 | 0.532 | 0.394 | 0.264 | 0.378 | 0.276 | 0.279 | 0.445 | 0.31 | 0.303
LK-2 | 0.867 | 0.951 | 1.14 |  | 0.958 | 0.282 | 0.402 | 0.322 |  | 0.477 | 0.643 | 0.778 | 0.945 |  | 0.755 | 0.374 | 0.412 | 0.63 |  | 0.501
LOU-NH91 | 0.773 | 0.836 | 0.78 | 0.587 | 0.737 | 0.834 | 0.811 | 0.803 | 0.826 | 0.802 | 0.942 | 0.887 | 0.94 | 0.912 | 0.89 | 0.759 | 0.802 | 0.79 | 0.67 | 0.812
LU99A | 1.12 | 0.98 | 0.976 | 0.825 | 1.03 | 0.889 | 1.09 | 0.903 | 0.805 | 0.988 | 0.255 | 0.289 | 0.178 | 0.243 | 0.287 | 0.404 | 0.422 | 0.45 | 0.345 | 0.421
LXF-289 | 0.903 | 0.897 | 0.906 | 0.936 | 0.831 | 0.33 | 0.393 | 0.358 | 0.311 | 0.366 | 1.07 | 1.02 | 1.08 | 1.06 | 1.03 | 1.16 | 1.17 | 1.11 | 1.37 | 0.991
NCI-H23 | 1.17 | 1.26 | 1.45 | 0.931 | 1.15 | 0.3 | 0.327 | 0.285 | 0.294 | 0.313 | 0.302 | 0.271 | 0.288 | 0.354 | 0.349 | 0.259 | 0.24 | 0.23 | 0.294 | 0.23
NCI-H322M | 0.638 | 0.57 | 0.608 | 0.552 | 0.626 |  | 0.799 | 0.68 | 0.612 | 0.708 |  | 0.773 | 0.744 | 0.747 | 0.874 |  | 0.767 | 0.551 | 0.555 | 0.653
NCI-H358 | 0.517 | 0.6 | 0.473 | 0.375 | 0.417 | 0.219 | 0.242 | 0.208 | 0.184 | 0.194 | 0.692 | 0.64 | 0.834 | 0.452 | 0.636 | 0.678 | 0.504 | 0.648 | 0.501 | 0.475
NCI-H460 | 0.872 | 1.03 | 1.03 | 1.07 | 1.11 | 0.547 | 0.453 | 0.552 | 0.446 | 0.512 | 0.413 | 0.444 | 0.487 | 0.291 | 0.447 | 0.444 | 0.671 | 0.684 | 0.726 | 0.564
NCI-H596 | 0.841 | 1.13 | 1.05 | 0.886 | 1.08 | 1.65 | 0.981 | 0.991 | 0.73 | 0.924 | 0.749 | 0.765 | 0.704 | 0.625 | 0.791 | 1.18 | 1.06 | 1.1 | 0.891 | 1.01
NCI-H647 | 0.919 | 1.18 | 1.06 | 0.955 | 1.3 | 0.438 | 0.478 | 0.411 | 0.297 | 0.401 | 0.622 | 0.579 | 0.705 | 0.479 | 0.488 | 0.425 | 0.484 | 0.827 | 0.401 | 0.589
NCI-H650 | 0.922 | 1.07 | 1.17 | 0.859 | 1.05 | 0.288 | 0.296 | 0.377 | 0.33 | 0.296 | 0.349 | 0.413 | 0.437 | 0.303 | 0.388 | 0.81 | 1.05 | 1.24 | 0.92 | 1.07
NCI-H727 | 1.05 | 0.961 | 0.93 | 0.712 | 0.811 | 0.939 | 0.95 | 0.857 | 0.951 | 0.897 | 0.65 | 0.757 | 0.705 | 0.597 | 0.66 | 0.45 | 0.536 | 0.65 | 0.589 | 0.749
NCI-H838 | 1.18 | 0.99 | 1.05 | 0.871 | 1.23 | 0.445 | 0.495 | 0.479 | 0.506 | 0.47 | 0.844 | 0.771 | 0.836 | 0.712 | 0.735 | 0.988 | 0.903 | 0.919 | 0.932 | 0.909
NCI-H1355 | 1.03 | 1.04 | 0.944 | 0.685 | 0.96 | 0.353 | 0.419 | 0.357 | 0.34 | 0.355 | 0.838 | 0.791 | 0.773 | 0.65 | 0.71 | 0.792 | 0.812 | 0.769 | 0.663 | 0.655
